# From patent US11207312B2, “Metallo-beta-lactamase inhibitors and methods of use thereof” (priority 2017, dated 2021)
# Experiments:
# [1] = test system: P. aeruginosa MB9798 (efflux+, IMP-1 plasmid); conditions: for MB9798 MITC95 P. aeruginosa uM Efflux WT: efflux + (MB9798) strain, imipenem at 2 μg/mL, in the presence of a class A, C, D serine β-lactamase inhibitor closely related to relebactam; for Efflux ratio: fold difference between efflux+ (MB9798) and efflux− (MB9799) strains
# Procedure, shortened: (§1)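 Isogenic P. aeruginosa PAO1 strains (efflux+ and multiple-efflux-pump-disrupted) carrying plasmid IMP-1, with inducible AmpC, tested by broth microdilution. Imipenem and/or ceftazidime fixed, usually at CLSI breakpoint, plus fixed class A/C β-lactamase inhibitor; titrated MBL inhibitor concentration restoring susceptibility recorded and compared between strains as efflux fold difference.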
# VIM-1 = VIM-1 (Pseudomonas aeruginosa (strain ATCC 15692 / DSM 22644 / CIP 104116 / JCM 14847 / LMG 12228 / 1C / PRS 101 / PAO1), UniProt A0A0F7KYQ8); assay: biochemical; conditions: CCF2-FA fluorescence assay, 2 hours at 25° C.; read-out: VIM1 IC50
# Procedure, shortened: (§2)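 In pH 7 phosphate buffer (100 mM) with 10 μM ZnSO4 and 0.005% Tween-20, CCF2-FA hydrolysis (1.25 μM) by 1 pM NDM-1, 2 pM IMP-1 or 30 pM VIM-1 was run 2 h at 25° C with inhibitor from 20 to 0.00063 μM. Ex 405/em 460 nm signal fitted to a 4-parameter curve for IC50.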
# IMP-1 = IMP-1 (Serratia marcescens, UniProt P52699); assay: biochemical; conditions: CCF2-FA fluorescence assay, 2 hours at 25° C.; read-out: IMP1 IC50
# Procedure, shortened: as §2
# NDM-1 = NDM-1 (Klebsiella pneumoniae, UniProt C7C422); assay: biochemical; assay type: biochemical; conditions: CCF2-FA fluorescence assay, 2 hours at 25° C.
# Procedure, shortened: as §2
# [2] = test system: Klebsiella pneumoniae expressing VIM-1 (IHMA599644); assay type: cell-based; conditions: with imipenem 1 μg/ml; 95% inhibition of bacterial growth
# Procedure, shortened: (§3)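 Clinical MBL-producing strains grown overnight at 35° C, diluted 1:100 into CAMHB, then exposed to test compound with imipenem at 1 μg/ml for 22–24 h at 35° C. Absorbance read-out; MITC95 is the lowest compound concentration giving 95% growth inhibition with imipenem.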
# [3] = test system: Serratia marcescens expressing IMP-1 (CL5741); assay type: cell-based; conditions: with imipenem 1 μg/ml; 95% inhibition of bacterial growth
# Procedure, shortened: as §3
# [4] = test system: Escherichia coli expressing NDM-1 (CLB30016); assay type: cell-based; conditions: with imipenem 1 μg/ml; 95% inhibition of bacterial growth
# Procedure, shortened: as §3
# [5] = test system: P. aeruginosa MB9799 (efflux-, IMP-1 plasmid); assay type: cell-based, Pseudomonas aeruginosa; conditions: efflux − (MB9799) strain; imipenem at 2 μg/mL; in the presence of a class A, C, D serine β-lactamase inhibitor closely related to relebactam
# Procedure, shortened: as §1
# VIM-2 = VIM-2 (Escherichia coli, UniProt Q5U7L7); assay: biochemical; conditions: CCF2-FA fluorescence assay; read-out: VIM2 IC50
# Chain of IMP-1 (P52699 whole entry, looked up, species assumed): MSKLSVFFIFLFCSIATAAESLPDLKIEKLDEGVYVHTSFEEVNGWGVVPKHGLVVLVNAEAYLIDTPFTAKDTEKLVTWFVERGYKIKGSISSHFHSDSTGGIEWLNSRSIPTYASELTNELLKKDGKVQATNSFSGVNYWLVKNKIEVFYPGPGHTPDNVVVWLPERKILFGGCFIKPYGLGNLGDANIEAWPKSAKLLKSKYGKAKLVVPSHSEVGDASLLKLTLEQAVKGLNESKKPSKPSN
# Chain of NDM-1 (C7C422 whole entry, looked up, species assumed): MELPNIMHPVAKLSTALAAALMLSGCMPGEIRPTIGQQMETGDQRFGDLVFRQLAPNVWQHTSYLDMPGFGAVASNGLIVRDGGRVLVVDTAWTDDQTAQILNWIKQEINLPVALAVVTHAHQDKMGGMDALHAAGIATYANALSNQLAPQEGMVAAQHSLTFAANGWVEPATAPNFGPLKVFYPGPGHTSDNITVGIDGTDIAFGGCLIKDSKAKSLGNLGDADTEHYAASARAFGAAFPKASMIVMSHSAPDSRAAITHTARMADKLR
SMILES,MB9798 MITC95 P. aeruginosa uM Efflux WT [1],Efflux ratio [1],IC50 (VIM-1),IC50 (IMP-1),IC50 (NDM-1),IHMA599644 K. pneumoniae MITC95 VIM [2],CL5741 S. marcescens MITC95 IMP [3],CLB30016 E. coli MITC95 NDM [4],MB9799 MITC95 P. aeruginosa uM Efflux Mutant [5],IC50 (VIM-2)
"NS(=O)(=O)c1c(S(=O)(=O)N[C@@H]2CCNC2)ccc(N2CCCC(=NO)C2=O)c1-c1nn[nH]n1 [Example 152, (R)-4-(3-(hydroxyimino)-2-oxopiperidin-1-yl)-N1-(pyrrolidin-3-yl)-3-(2H-tetrazol-5-yl)benzene-1,2-disulfonamide]",3.13 µM,2.00,160 pM,6800 pM,80 pM,3.13 µM,1.56 µM,0.39 µM,1.56 µM,740 pM
"NCCNS(=O)(=O)C1CCN(c2ccc(S(=O)(=O)N[C@@H]3CCNC3)c(S(N)(=O)=O)c2-c2nn[nH]n2)CC1 [Example 167, (R)-4-(4-(N-(2-aminoethyl)sulfamoyl)piperidin-1-yl)-N1-(pyrrolidin-3-yl)-3-(2H-tetrazol-5-yl)benzene-1,2-disulfonamide]",0.78 µM,1.00,50 pM,250 pM,250 pM,1.56 µM,1.17 µM,1.17 µM,0.78 µM,400 pM
"NC[C@@H](O)CNS(=O)(=O)c1ccc(N2CCC(F)(CO)CC2)c(-c2nn[nH]n2)c1S(N)(=O)=O [Example 22, (R)-N^1-(3-amino-2-hydroxypropyl)-4-(4-fluoro-4-(hydroxymethyl)piperidin-1-yl)-3-(2H-tetrazol-5-yl)benzene-1,2-disulfonamide]",1.56 µM,1.00,350 pM,700 pM,450 pM,6.25 µM,1.56 µM,3.13 µM,1.56 µM,790 pM
"NS(=O)(=O)c1c(S(=O)(=O)N[C@@H]2CCNC2)ccc(N2CCN(CCCO)CC2)c1-c1nnn[nH]1 [Example 93, 4-[4-(3-hydroxypropyl)piperazin-1-yl]-N1-[(3R)-pyrrolidin-3-yl]-3-(1H-tetrazol-5-yl)benzene-1,2-disulfonamide]",3.13 µM,2.00,3620 pM,2520 pM,1710 pM,1.56 µM,0.20 µM,0.39 µM,1.56 µM,6730 pM
"NCC=C1CCN(c2ccc(S(=O)(=O)NC[C@H](O)CN)c(S(N)(=O)=O)c2-c2nn[nH]n2)CC1 [Example 204, (R)—N1-(3-amino-2-hydroxypropyl)-4-(4-(2-aminoethylidene)piperidin-1-yl)-3-(2H-tetrazol-5-yl)benzene-1,2-disulfonamide]",0.78 µM,1.00,160 pM,1550 pM,970 pM,1.56 µM,1.56 µM,0.78 µM,0.78 µM,3440 pM
"NC[C@@H](O)CNS(=O)(=O)c1ccc(N2CCN(C(CO)CO)CC2)c(-c2nn[nH]n2)c1S(N)(=O)=O [Example 160, (R)-N1-(3-amino-2-hydroxypropyl)-4-(4-(1,3-dihydroxypropan-2-yl)piperazin-1-yl)-3-(2H-tetrazol-5-yl)benzene-1,2-disulfonamide]",1.56 µM,1.00,1340 pM,1200 pM,1160 pM,1.56 µM,0.20 µM,0.78 µM,1.56 µM,5490 pM
"NS(=O)(=O)c1c(S(=O)(=O)C2CNC2)ccc(N2CCN(CCCO)CC2)c1-c1nnn[nH]1 [Example 53, 6-(azetidin-3-ylsulfonyl)-3-[4-(3-hydroxypropyl)piperazin-1-yl]-2-(1H-tetrazol-5-yl)benzenesulfonamide]",6.25 µM,4.00,25100 pM,7810 pM,8790 pM,3.13 µM,0.39 µM,0.39 µM,1.56 µM,35500 pM
"NCCNS(=O)(=O)c1ccc(N2CCC(CO)CC2)c(-c2nnn[nH]2)c1S(N)(=O)=O [Example 43, N1-(2-aminoethyl)-4-(4-(hydroxymethyl)piperidin-1-yl)-3-(1H-tetrazol-5-yl)benzene-1,2-disulfonamide]",1.56 µM,1.00,190 pM,580 pM,510 pM,6.25 µM,1.56 µM,1.56 µM,1.56 µM,610 pM
"NCCNS(=O)(=O)c1ccc(N2CCN(CCO)CC2)c(-c2nnn[nH]2)c1S(N)(=O)=O [Example 48, N1-(2-aminoethyl)-4-(4-(2-hydroxyethyl)piper-azin-1-yl)-3-(1H-tetrazol-5-yl)benzene-1,2-disulfonamide]",1.56 µM,4.00,7230 pM,5590 pM,1520 pM,0.39 µM,0.05 µM,0.05 µM,0.39 µM,15000 pM
"NS(=O)(=O)c1c(S(=O)(=O)N[C@@H]2CCNC2)ccc(N2CCC(c3c[nH]cn3)CC2)c1-c1nn[nH]n1 [Example 166, (R)-4-(4-(1H-imidazol-4-yl)piperidin-1-yl)-N1-(pyrrolidin-3-yl)-3-(2H-tetrazol-5-yl)benzene-1,2-disulfonamide]",0.78 µM,1.00,90 pM,220 pM,120 pM,1.56 µM,0.78 µM,0.78 µM,0.78 µM,530 pM
"NS(=O)(=O)c1c(S(=O)(=O)N[C@@H]2CCNC2)ccc(N2CC(N3CCOCC3)C2)c1-c1nnn[nH]1 [Example 111, 4-(3-morpholin-4-ylazetidin-1-yl)-N1-[(3R)-pyrrolidin-3-yl]-3-(1H-tetrazol-5-yl)benzene-1,2-disulfonamide]",12.50 µM,8.00,1240 pM,4160 pM,4560 pM,3.13 µM,1.56 µM,0.78 µM,1.56 µM,8650 pM
"NC[C@@H](O)CNS(=O)(=O)c1ccc(N2CCC(CO)CC2)c(-c2nnn[nH]2)c1S(N)(=O)=O [Example 42, (R)-N1-(3-amino-2-hydroxypropyl)-4-(4-(hydroxymethyl)piperidin-1-yl)-3-(1H-tetrazol-5-yl)benzene-1,2-disulfonamide]",1.56 µM,1.00,160 pM,470 pM,450 pM,6.25 µM,3.13 µM,3.13 µM,1.56 µM,710 pM
